# Source: ChEMBL document CHEMBL1201862, “PubChem BioAssay data set” (2004)
# The source made the active and inactive calls.
# Assays:
# [1] = target: T1, E3 ubiquitin-protein ligase XIAP (Homo sapiens, UniProt P98170); assay: Counter Screen using XIAP-Bir3 for Chemical Antagonists of Bir1/2 domains of IAP-family anti-apoptotic proteins. [Related pubchem assays (depositor defined):AID1018, AID1449, AID1514, AID1638, AID1749, AID1750, AID488957, AID488963]
# [2] = target: T1, E3 ubiquitin-protein ligase XIAP; assay: small molecules displacing peptide from XIAP – biochemical, IAP family, fluorescence polarization (AID 1018); type: functional
# [3] = target: Sphingosine 1-phosphate receptor 1 (Homo sapiens, UniProt P21453); assay: Fluorescence-based counterscreen assay for S1P4 agonists: Cell-based dose response high throughput screening assay to identify agonists of the Sphingosine 1-Phosphate Receptor 1 (S1P1). [Related pubchem assays (depositor defined):AID1509, AID1523, AID1801, AID463107, AID463118, AID463119, AID463122, AID463123, AID463129, AID463225, AID504400, AID504460]; type: functional
# [4] = target: T2, Sphingosine 1-phosphate receptor 4 (Homo sapiens, UniProt O95977); assay: Fluorescence dose response cell-based high throughput screening assay for agonists of the Sphingosine 1-Phosphate Receptor 4 (S1P4). [Related pubchem assays: 1509 (Primary screen.), 1523 (Confirmation screen in triplicates.)]; type: functional
# T2 sequence (O95977 whole entry): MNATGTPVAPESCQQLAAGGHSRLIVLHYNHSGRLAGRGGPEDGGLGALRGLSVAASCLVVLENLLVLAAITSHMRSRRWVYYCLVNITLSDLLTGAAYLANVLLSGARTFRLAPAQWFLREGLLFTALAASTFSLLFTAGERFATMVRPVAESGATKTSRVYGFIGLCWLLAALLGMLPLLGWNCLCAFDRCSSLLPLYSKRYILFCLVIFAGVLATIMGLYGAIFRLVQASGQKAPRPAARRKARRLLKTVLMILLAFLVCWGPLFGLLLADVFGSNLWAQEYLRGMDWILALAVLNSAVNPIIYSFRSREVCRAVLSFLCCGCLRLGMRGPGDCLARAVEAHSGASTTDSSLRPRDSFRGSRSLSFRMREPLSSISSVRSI
# [5] = luciferase reporter signal suppression in cells – H4 neuroglioma cells, luminescence, dose response (AID 1990); type: functional, cell-based
# [6] = Luminescence Cell-Based Dose Response HTS to Identify Inhibitors of 5'UTR Stem-Loop Driven Prion Protein mRNA Translation in H4 Neuroglioblastoma Cells. [Related pubchem assays: 1827 (Project Summary), 1813 (Primary HTS)]; type: functional
# [7] = alpha-synuclein stem-loop luciferase translation blockers – H4 neuroglioma cells, luminescence, confirmation (AID 1988); type: functional, cell-based
# [8] = THP-1 cell cytotoxicity, dose response, cytotoxicity control for non-replicating M. tuberculosis project (AID 489025); type: functional
# [9] = HepG2 cell cytotoxicity, dose response, cytotoxicity control for non-replicating M. tuberculosis project (AID 489018); type: functional; conditions: Mycobacterium tuberculosis
# [10] = Vero E6 cell cytotoxicity, dose response, cytotoxicity control for non-replicating M. tuberculosis project, secondary assay (AID 492998); type: functional, VeroE6; conditions: Vero C1008
# [11] = cells; type: functional
# [12] = reduction of Shn3 3'UTR-driven luciferase in osteoblasts – cell-based, Clone20 osteoblasts, firefly luciferase, cherry-picked, dose response (AID 624132); type: functional;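 also: firefly luciferase luminescence from reporter carrying the Shn3 3'UTR in osteoblasts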
# [13] = loss of viability in HepG2 cells – cell-based, CellTiter-Glo, cherry-picked, cytotoxicity control for Shn3 inhibitor project, dose response (AID 624134); type: functional
# [14] = non-specific 3'UTR reporter inhibition in Clone20-Shn3RL – cell-based, Renilla luciferase, cherry-picked, counter-screen for Shn3 inhibitor project, dose response (AID 624133); type: functional
# [15] = target: Glyceraldehyde-3-phosphate dehydrogenase (Homo sapiens, UniProt P04406)
# [16] = target: Alkaline phosphatase, placental type (Homo sapiens, UniProt P05187); assay: human placental alkaline phosphatase inhibition – biochemical, luminescence, confirmation (AID 1512); type: functional
# [17] = target: T3, Alkaline phosphatase, tissue-nonspecific isozyme (Homo sapiens, UniProt P05186); assay: potency against alkaline phosphatase TNAP – biochemical, luminescent, dose response, SAR follow-up (AID 1056)
# T3 sequence (P05186 whole entry): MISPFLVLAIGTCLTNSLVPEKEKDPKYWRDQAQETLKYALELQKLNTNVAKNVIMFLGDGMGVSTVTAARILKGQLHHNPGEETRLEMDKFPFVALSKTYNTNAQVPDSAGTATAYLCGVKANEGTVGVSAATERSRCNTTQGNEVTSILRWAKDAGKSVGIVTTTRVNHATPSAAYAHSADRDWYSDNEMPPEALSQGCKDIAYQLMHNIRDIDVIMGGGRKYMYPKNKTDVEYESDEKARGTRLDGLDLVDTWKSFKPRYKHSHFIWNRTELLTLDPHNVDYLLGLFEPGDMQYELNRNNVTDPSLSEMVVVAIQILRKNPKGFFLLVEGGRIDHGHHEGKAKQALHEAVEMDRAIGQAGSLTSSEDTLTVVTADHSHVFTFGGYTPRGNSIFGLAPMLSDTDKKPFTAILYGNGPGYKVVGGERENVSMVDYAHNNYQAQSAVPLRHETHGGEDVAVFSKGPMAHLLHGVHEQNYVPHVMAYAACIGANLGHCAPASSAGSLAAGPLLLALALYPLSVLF
# [18] = Trypanosoma cruzi growth suppression in host cells – NIH3T3 host cells, beta-gal luminescence, confirmation (AID 2044); type: functional, cell-based;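 also: intracellular parasites grown in NIH/3T3 mouse fibroblasts as host cells; luminescent beta-galactosidase reporter signal from transgenic T. cruzi replicating inside host cells; inhibitors lower the luminescence signal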
# [19] = NIH3T3 cell viability loss – ATP luminescence, mouse fibroblasts, counter-screen, dose response (AID 2010); type: functional, cell-based;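 also: cells exposed to compound for about 90 hours before reading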
# [20] = target: G-protein coupled receptor 55 (Homo sapiens, UniProt Q9Y2T6); assay: inhibition of LPI-stimulated GPR55 beta-arrestin translocation – imaging, U2OS, beta-arrestin-GFP, LPI agonist, primary screen (AID 2013); type: functional;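 also: antagonist potency measured as reduced agonist-driven arrestin aggregation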
# Chain of G-protein coupled receptor 55 (Q9Y2T6 whole entry): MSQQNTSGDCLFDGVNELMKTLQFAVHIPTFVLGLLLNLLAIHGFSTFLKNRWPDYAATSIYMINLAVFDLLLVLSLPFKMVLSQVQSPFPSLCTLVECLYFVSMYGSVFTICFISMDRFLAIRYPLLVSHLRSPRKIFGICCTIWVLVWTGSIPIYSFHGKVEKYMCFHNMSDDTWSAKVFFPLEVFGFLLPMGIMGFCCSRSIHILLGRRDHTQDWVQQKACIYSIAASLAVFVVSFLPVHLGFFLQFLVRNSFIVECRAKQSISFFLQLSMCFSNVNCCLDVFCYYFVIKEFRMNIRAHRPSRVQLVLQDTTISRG
# T1 sequence (P98170 whole entry): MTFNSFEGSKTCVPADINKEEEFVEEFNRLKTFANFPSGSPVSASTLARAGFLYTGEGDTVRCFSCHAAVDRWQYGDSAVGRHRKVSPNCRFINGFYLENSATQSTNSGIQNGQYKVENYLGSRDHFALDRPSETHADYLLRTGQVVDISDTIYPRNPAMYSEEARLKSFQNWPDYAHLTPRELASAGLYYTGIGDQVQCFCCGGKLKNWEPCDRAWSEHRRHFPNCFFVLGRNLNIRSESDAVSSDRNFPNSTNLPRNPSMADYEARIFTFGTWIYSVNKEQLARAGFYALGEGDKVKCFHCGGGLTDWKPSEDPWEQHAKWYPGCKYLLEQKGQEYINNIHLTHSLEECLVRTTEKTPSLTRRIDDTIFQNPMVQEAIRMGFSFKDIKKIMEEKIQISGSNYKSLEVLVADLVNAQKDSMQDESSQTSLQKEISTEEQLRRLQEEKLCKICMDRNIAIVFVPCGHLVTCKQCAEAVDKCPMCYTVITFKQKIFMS
# Chain of Sphingosine 1-phosphate receptor 1 (P21453 whole entry): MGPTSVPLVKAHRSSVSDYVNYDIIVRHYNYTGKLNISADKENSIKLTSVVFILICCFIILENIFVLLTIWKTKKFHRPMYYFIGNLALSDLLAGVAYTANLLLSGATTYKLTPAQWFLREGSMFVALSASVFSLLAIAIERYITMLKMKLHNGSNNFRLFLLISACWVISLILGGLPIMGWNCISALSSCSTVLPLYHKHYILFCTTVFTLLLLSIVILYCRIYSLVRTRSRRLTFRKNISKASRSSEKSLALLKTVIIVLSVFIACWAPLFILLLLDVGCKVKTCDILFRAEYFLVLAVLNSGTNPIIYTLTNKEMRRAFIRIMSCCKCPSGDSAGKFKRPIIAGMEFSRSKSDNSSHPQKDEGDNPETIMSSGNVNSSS
# Chain of Alkaline phosphatase, placental type (P05187 whole entry): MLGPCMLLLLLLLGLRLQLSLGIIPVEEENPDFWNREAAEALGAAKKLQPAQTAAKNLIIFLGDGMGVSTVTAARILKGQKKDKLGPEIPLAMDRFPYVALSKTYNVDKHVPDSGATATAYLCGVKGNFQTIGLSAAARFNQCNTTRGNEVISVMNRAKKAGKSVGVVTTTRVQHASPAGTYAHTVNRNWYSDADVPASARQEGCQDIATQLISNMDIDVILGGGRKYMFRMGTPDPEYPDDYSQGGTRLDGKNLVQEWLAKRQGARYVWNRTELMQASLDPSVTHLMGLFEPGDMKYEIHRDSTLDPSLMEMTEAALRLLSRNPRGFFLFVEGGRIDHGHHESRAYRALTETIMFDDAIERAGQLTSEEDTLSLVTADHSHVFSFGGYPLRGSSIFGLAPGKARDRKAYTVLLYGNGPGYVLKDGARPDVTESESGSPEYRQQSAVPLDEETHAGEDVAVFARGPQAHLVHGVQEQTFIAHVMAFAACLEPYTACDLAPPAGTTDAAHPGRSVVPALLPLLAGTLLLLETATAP
# Chain of Glyceraldehyde-3-phosphate dehydrogenase (P04406 whole entry): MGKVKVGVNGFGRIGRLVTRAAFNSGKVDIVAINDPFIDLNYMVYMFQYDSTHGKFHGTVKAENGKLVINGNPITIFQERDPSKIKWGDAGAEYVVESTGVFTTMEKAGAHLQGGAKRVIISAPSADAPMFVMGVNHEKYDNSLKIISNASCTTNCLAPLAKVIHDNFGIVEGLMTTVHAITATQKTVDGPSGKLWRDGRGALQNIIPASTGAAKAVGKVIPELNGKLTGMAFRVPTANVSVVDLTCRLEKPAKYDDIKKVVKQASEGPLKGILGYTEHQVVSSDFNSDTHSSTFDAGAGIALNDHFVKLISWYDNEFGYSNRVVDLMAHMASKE
structure (smiles),measurement,setting,value
CC1CN(S(=O)(=O)c2cccc(C(=O)Nc3ccc(S(=O)(=O)Nc4ncccn4)cc3)c2)CC(C)O1 (centres undefined),IC50,[1],> 100 µM (inactive)
same,IC50,[2],> 100 µM (not active)
CNC(=O)c1[nH]cnc1C(=O)N[C@@H](Cc1ccccc1)C(=O)OCc1ccccc1,EC50,[3],3.13 µM (active)
same,EC50,[4],> 16.6 µM (not active)
CCOc1cccc(CNCCc2c(C)[nH]c3ccc(OC(F)(F)F)cc23)c1O,EC50,[5],> 120 µM (not active)
same,EC50,[6],17.2 µM (active)
same,EC50,[7],11.2 µM (active)
same,CC50,[8],6.17 µM (active)
same,CC50,[9],5.75 µM (active)
same,CC50,[10],9.94 µM (active)
same,IC50,[11],10.5 µM (active)
same,AC50,[12],0.611 µM (active)
same,AC50,[13],8.24 µM (active)
same,AC50,[14],18.1 µM (active)
COc1ccc(CCc2nc(N)nn2-c2ccccc2)cc1OC,IC50,[15],> 100 µM (not active)
same,IC50,[16],> 100 µM (inactive)
same,IC50,[17],> 100 µM (inactive)
COc1ccc(-c2nnc(NC(=O)c3ccc(S(=O)(=O)N4COCC4(C)C)cc3)o2)cc1,EC50,[18],2.09 µM (active)
same,EC50,[19],7.83 µM (active)
same,CC50,[8],7.22 µM (active)
same,CC50,[9],8.49 µM (active)
same,CC50,[10],6.01 µM (active)
same,IC50,[11],6.25 µM (active)
O=C(O)c1ccc(Cl)c(S(=O)(=O)Nc2ccc(OCc3ccccc3)cc2)c1,IC50,[20],4.05 µM (active)
